Data published in ChEMBL document CHEMBL2157879, “Improving the affinity of naphthalene diimide ligand to telomeric DNA by incorporating Zn²⁺ ions into its dipicolylamine groups” (Bioorg Med Chem, 2012).
Activity calls are given as the source filed them. The rule behind the calls is not given here.

What was measured:
Nucleic Acid [1] = assay: Binding affinity to AGGG(TTAGGG)3 G-quadruplex in Tris-HCl buffer by spectrophotometric titration method in presence of 100 mM KCl; type: nucleic-acid assay
Nucleic Acid [2] = assay: Binding affinity to TAGGG(TTAGGG)3 G-quadruplex in Tris-HCl buffer by spectrophotometric titration method in presence of 100 mM KCl; type: nucleic-acid assay
Nucleic Acid [3] = assay: Binding affinity to AGGG(TTAGGG)3 G-quadruplex in Tris-HCl buffer assessed as change in melting temperature at 3 uM by CD titration method in presence of 100 mM KCl; type: nucleic-acid assay
Nucleic Acid [4] = assay: Binding affinity to TAGGG(TTAGGG)3 G-quadruplex in Tris-HCl buffer assessed as change in melting temperature at 3 uM by CD titration method in presence of 100 mM KCl; type: nucleic-acid assay
Nucleic Acid [5] = assay: Binding affinity to AGGG(TTAGGG)3 G-quadruplex in Tris-HCl buffer by UV-vis spectrophotometric titration method in presence of 100 mM KCl; type: nucleic-acid assay
Nucleic Acid [6] = assay: Binding affinity to AGGG(TTAGGG)3 G-quadruplex in Tris-HCl buffer assessed as change in melting temperature at 3 uM by CD titration method in presence of 100 mM NaCl; type: nucleic-acid assay
Nucleic Acid [7] = assay: Binding affinity to TAGGG(TTAGGG)3 G-quadruplex in Tris-HCl buffer assessed as change in melting temperature at 3 uM by CD titration method in presence of 100 mM NaCl; type: nucleic-acid assay
[8] = molecular target: Telomerase reverse transcriptase (Homo sapiens, UniProt O14746); assay: Inhibition of telomerase-mediated primer elongation by gel electrophoresis-based TRAP assay
Nucleic Acid [9] = assay: Binding affinity to biotin-labeled AGGG(TTAGGG)3 at 1 to 960 nM by SPR analysis in presence of 0.15 mM NaCl; type: nucleic-acid assay
Nucleic Acid [10] = assay: Binding affinity to biotin-labeled TAGGG(TTAGGG)3 at 1 to 960 nM by SPR analysis in presence of 0.15 mM NaCl; type: nucleic-acid assay
Nucleic Acid [11] = assay: Binding affinity to biotin-labeled AGGG(TTAGGG)3 at 1 to 960 nM by SPR analysis in presence of […]; type: nucleic-acid assay
Nucleic Acid [12] = assay: Binding affinity to biotin-labeled TAGGG(TTAGGG)3 at 1 to 960 nM by SPR analysis in presence of […]; type: nucleic-acid assay
Nucleic Acid [13] = assay: Binding affinity to TAGGG(TTAGGG)3 G-quadruplex in Tris-HCl buffer by UV-vis spectrophotometric titration method in presence of 100 mM KCl; type: nucleic-acid assay
Nucleic Acid [14] = assay: Binding affinity to ds AGGG(TTAGGG)3 in Tris-HCl buffer after 2 hrs by UV-vis spectrophotometric titration method in presence of 100 mM KCl; type: nucleic-acid assay
Nucleic Acid [15] = assay: Binding affinity to ds AGGG(TTAGGG)3 in Tris-HCl buffer assessed as melting temperature at DNA/compound molar ratio 1:2 by CD titration method in presence of 100 mM KCl (reference value: 58 degC); type: nucleic-acid assay
Nucleic Acid [16] = assay: Stabilization of TAGGG(TTAGGG)3 G-quadruplex in Tris-HCl buffer at DNA/ligand molar ratio 1 to 4 by CD titration method 100 mM KCl; type: nucleic-acid assay
Nucleic Acid [17] = assay: Stabilization of AGGG(TTAGGG)3 G-quadruplex in Tris-HCl buffer at DNA/ligand molar ratio 1 to 4 by CD titration method in presence of 100 mM KCl; type: nucleic-acid assay

Telomerase reverse transcriptase, sequence (O14746 whole entry): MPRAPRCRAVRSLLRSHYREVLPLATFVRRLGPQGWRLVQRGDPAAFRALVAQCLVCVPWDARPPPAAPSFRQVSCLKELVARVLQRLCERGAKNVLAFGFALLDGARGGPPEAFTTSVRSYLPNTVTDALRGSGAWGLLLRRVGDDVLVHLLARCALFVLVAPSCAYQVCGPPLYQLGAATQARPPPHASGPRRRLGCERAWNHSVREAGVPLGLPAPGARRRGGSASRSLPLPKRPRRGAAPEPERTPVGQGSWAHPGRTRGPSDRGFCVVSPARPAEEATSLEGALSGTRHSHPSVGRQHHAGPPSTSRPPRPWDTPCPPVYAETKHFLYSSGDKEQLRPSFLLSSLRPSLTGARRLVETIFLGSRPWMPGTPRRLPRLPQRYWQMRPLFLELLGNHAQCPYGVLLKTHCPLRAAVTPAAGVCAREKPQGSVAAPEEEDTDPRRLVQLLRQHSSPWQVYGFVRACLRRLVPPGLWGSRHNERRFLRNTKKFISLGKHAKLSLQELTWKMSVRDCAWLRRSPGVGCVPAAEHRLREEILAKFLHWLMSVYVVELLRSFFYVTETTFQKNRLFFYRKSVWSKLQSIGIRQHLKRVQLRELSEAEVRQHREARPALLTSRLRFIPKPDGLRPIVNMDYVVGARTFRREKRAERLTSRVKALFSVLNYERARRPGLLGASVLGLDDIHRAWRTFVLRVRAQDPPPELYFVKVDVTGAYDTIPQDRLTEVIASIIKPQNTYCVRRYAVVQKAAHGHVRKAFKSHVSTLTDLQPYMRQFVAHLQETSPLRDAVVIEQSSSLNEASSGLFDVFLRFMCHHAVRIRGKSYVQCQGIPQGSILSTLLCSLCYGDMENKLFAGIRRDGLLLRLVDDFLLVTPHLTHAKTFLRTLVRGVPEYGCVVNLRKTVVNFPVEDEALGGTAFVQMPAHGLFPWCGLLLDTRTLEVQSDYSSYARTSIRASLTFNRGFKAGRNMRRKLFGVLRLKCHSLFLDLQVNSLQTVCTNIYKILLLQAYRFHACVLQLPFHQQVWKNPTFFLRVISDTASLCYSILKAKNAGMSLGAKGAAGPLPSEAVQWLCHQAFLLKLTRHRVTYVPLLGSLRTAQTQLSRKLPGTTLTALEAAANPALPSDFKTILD

CN(CCCN(Cc1ccccn1)Cc1ccccn1)CCCN1C(=O)c2ccc3c4c(ccc(c24)C1=O)C(=O)N(CCCN(C)CCCN(Cc1ccccn1)Cc1ccccn1)C3=O
K (Nucleic Acid [1]): 1.1 µM
K (Nucleic Acid [2]): 2.8 µM
ΔTm (Nucleic Acid [3]): 12 °C
ΔTm (Nucleic Acid [4]): 13 °C
Activity (Nucleic Acid [5]): inactive
ΔTm (Nucleic Acid [6]): 1 °C
ΔTm (Nucleic Acid [7]): 1 °C
EC50 [8]: 4 µM
Activity (Nucleic Acid [9]): inactive
Activity (Nucleic Acid [10]): inactive
Activity (Nucleic Acid [11]): Active
Activity (Nucleic Acid [12]): Active
Activity (Nucleic Acid [13]): inactive
K (Nucleic Acid [14]): 0.9 µM
Tm (Nucleic Acid [15]): 66 °C
Activity (Nucleic Acid [16]): Active
Activity (Nucleic Acid [17]): Active
